Several values for one entry are separate records, joined by “and”; a condition that tells them apart may be missing. Equal entries are not always repeated. Inconclusive results and toxic doses are left out. Rule for the calls: active = survival T/C of 150% or more; inactive = T/C below 125% in these data.
Tested on: P388 leukemia ip, CD2F1 mice, survival T/C
Experiment: NCI In Vivo Anticancer Drug Screen. Data for tumor model P388 Leukemia (intraperitoneal) in CD2F1 (CDF1) mice
Details: endpoint: median survival time, higher = longer survival
Procedure, shortened: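 Mice carrying the transplanted tumor received test compound or vehicle. Survival was recorded in each group, and the value is the treated-group measurement divided by that of the vehicle-treated control group.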

[1] = dose: 50.0 mg/kg/injection, schedule: Q01DX005 (ip), vehicle: saline with Tween-80
[2] = dose: 100.0 mg/kg/injection, schedule: Q01DX005 (ip), vehicle: saline with Tween-80
[3] = dose: 200.0 mg/kg/injection, schedule: Q01DX005 (ip), vehicle: saline with Tween-80
[4] = dose: 50.0 mg/kg/injection, schedule: Q01DX009 (ip), vehicle: saline with Tween-80
[5] = dose: 100.0 mg/kg/injection, schedule: Q01DX009 (ip), vehicle: saline with Tween-80
[6] = dose: 200.0 mg/kg/injection, schedule: Q01DX009 (ip), vehicle: saline with Tween-80
[7] = dose: 400.0 mg/kg/injection, schedule: Q01DX009 (ip), vehicle: saline with Tween-80
[8] = dose: 50.0 mg/kg/injection, schedule: Q01DX005 (ip), vehicle: Klucel (hydroxypropylcellulose) (HPC)
[9] = dose: 100.0 mg/kg/injection, schedule: Q01DX005 (ip), vehicle: Klucel (hydroxypropylcellulose) (HPC)
[10] = dose: 200.0 mg/kg/injection, schedule: Q01DX005 (ip), vehicle: Klucel (hydroxypropylcellulose) (HPC)
[11] = dose: 12.5 mg/kg/injection, schedule: Q01DX009 (ip), vehicle: saline with Tween-80
[12] = dose: 25.0 mg/kg/injection, schedule: Q01DX009 (ip), vehicle: saline with Tween-80
[13] = dose: 50.0 mg/kg/injection, schedule: Q01DX005 (ip), vehicle: saline
[14] = dose: 100.0 mg/kg/injection, schedule: Q01DX005 (ip), vehicle: saline
[15] = dose: 200.0 mg/kg/injection, schedule: Q01DX005 (ip), vehicle: saline
[16] = dose: 50.0 mg/kg/injection, schedule: Q01DX009 (ip), vehicle: Klucel (hydroxypropylcellulose) (HPC)
[17] = dose: 100.0 mg/kg/injection, schedule: Q01DX009 (ip), vehicle: Klucel (hydroxypropylcellulose) (HPC)
[18] = dose: 200.0 mg/kg/injection, schedule: Q01DX009 (ip), vehicle: Klucel (hydroxypropylcellulose) (HPC)

Measured: T/C

COC(=O)CC(OC)c1nc(C(=O)OC)c(C)c(=O)[nH]1 (stereo not given)
inactive: dose: 4.0 mg/kg/injection, schedule: Q01DX009 (ip), vehicle: water 111 % of control | dose: 8.0 mg/kg/injection, schedule: Q01DX009 (ip), vehicle: water 101 % of control | dose: 16.0 mg/kg/injection, schedule: Q01DX009 (ip), vehicle: water 96 % of control | dose: 32.0 mg/kg/injection, schedule: Q01DX009 (ip), vehicle: water 99 % of control | dose: 64.0 mg/kg/injection, schedule: Q01DX009 (ip), vehicle: water 102 % of control | dose: 128.0 mg/kg/injection, schedule: Q01DX009 (ip), vehicle: water 105 % of control

Nn1c(N/N=C\c2ccccc2)nnc1N/N=C/c1ccccc1
inactive: dose: 50.0 mg/kg/injection, schedule: Q01DX001 (ip), vehicle: Klucel (hydroxypropylcellulose) (HPC) 113 % of control | dose: 100.0 mg/kg/injection, schedule: Q01DX001 (ip), vehicle: Klucel (hydroxypropylcellulose) (HPC) 105 % of control

C/C(=N\NC(N)=S)c1ccccc1
inactive: dose: 3.12 mg/kg/injection, schedule: Q01DX009 (ip), vehicle: Klucel (hydroxypropylcellulose) (HPC) 106 % of control | dose: 6.25 mg/kg/injection, schedule: Q01DX009 (ip), vehicle: Klucel (hydroxypropylcellulose) (HPC) 111 % of control | dose: 12.5 mg/kg/injection, schedule: Q01DX009 (ip), vehicle: Klucel (hydroxypropylcellulose) (HPC) 114 % of control

O=C(Nc1ccc(Cl)c(Cl)c1)Nc1ccc(Oc2ccc(Cl)cc2Cl)cc1S(=O)(=O)O
inactive: dose: 100.0 mg/kg/injection, schedule: Q04DX003 (ip), vehicle: Klucel (hydroxypropylcellulose) (HPC) 91 % of control | dose: 200.0 mg/kg/injection, schedule: Q04DX003 (ip), vehicle: Klucel (hydroxypropylcellulose) (HPC) 100 % of control | dose: 400.0 mg/kg/injection, schedule: Q04DX003 (ip), vehicle: Klucel (hydroxypropylcellulose) (HPC) 95 % of control

Nc1ccc(/C=C/c2ccnc3ccccc23)c(N)c1
inactive: dose: 1.25 mg/kg/injection, schedule: Q01DX001 (ip), vehicle: Klucel (hydroxypropylcellulose) (HPC) 107 % of control | dose: 2.5 mg/kg/injection, schedule: Q01DX001 (ip), vehicle: Klucel (hydroxypropylcellulose) (HPC) 108 % of control | dose: 5.0 mg/kg/injection, schedule: Q01DX001 (ip), vehicle: Klucel (hydroxypropylcellulose) (HPC) 114 % of control | dose: 10.0 mg/kg/injection, schedule: Q01DX001 (ip), vehicle: Klucel (hydroxypropylcellulose) (HPC) 107 % of control

CCCCn1c2c(c3ccccc3c1=O)C(=O)c1ccccc1-2
inactive: [1] 92 % of control | [2] 91 % of control | [3] 88 % of control

C(#CP(C#Cc1ccccc1)C#Cc1ccccc1)c1ccccc1
inactive: [4] 103 % of control | [5] 92 % of control | [6] 94 % of control | [7] 86 % of control

C1C[S][Hg][S]CCO1
inactive: dose: 6.25 mg/kg/injection, schedule: Q01DX009 (ip), vehicle: suspension in saline 105 % of control | dose: 12.5 mg/kg/injection, schedule: Q01DX009 (ip), vehicle: suspension in saline 102 % of control

O=c1/c(=C/c2ccc(/C=c3\sc4nc5ccccc5n4c3=O)cc2)sc2nc3ccccc3n12
inactive: [1] 92 % of control | [2] 90 % of control | [3] 95 % of control

CC1(C)CC2C3=CCC4C5(C)CCC(O)C(C)(C)C5CCC4(C)C3(C)CC(O)C2(CO)C(O)C1O (stereo not given)
inactive: dose: 3.5 mg/kg/injection, schedule: Q01DX005 (ip), vehicle: Klucel (hydroxypropylcellulose) (HPC) 99 % of control | dose: 7.0 mg/kg/injection, schedule: Q01DX005 (ip), vehicle: Klucel (hydroxypropylcellulose) (HPC) 99 % of control | dose: 14.0 mg/kg/injection, schedule: Q01DX005 (ip), vehicle: Klucel (hydroxypropylcellulose) (HPC) 95 % of control | dose: 28.0 mg/kg/injection, schedule: Q01DX005 (ip), vehicle: Klucel (hydroxypropylcellulose) (HPC) 96 % of control

CC(=O)Nc1ccc(C(C)C)cc1N
inactive: [8] 100 % of control | [9] 101 % of control | [10] 107 % of control

Nc1nc(N)c2nc3c(nc2n1)CCCCCCCCCC3
inactive: [11] 92 % of control | [12] 92 % of control | [4] 89 % of control | [5] 90 % of control

Cc1ccn(C)c(=N)c1
inactive: [4] 118 % of control | [5] 100 % of control | [6] 104 % of control

CNc1nnnn1C
inactive: [13] 98 % of control | [14] 98 % of control | [15] 98 % of control

CCN(CC)CCCC(=O)O
inactive: [13] 100 % of control | [14] 100 % of control | [15] 100 % of control

CCOC(=O)C1=C(C)O/C(=C/c2ccccc2)C1=O
inactive: [16] 112 % of control | [17] 102 % of control | [18] 92 % of control

CCC(O)CN(C)Cc1cc2c(c3ccccc13)CCCC2 (stereo not given)
inactive: dose: 50.0 mg/kg/injection, schedule: Q01DX009 (ip), vehicle: saline 106 % of control | dose: 100.0 mg/kg/injection, schedule: Q01DX009 (ip), vehicle: saline 108 % of control

CC(=O)OC(CCl)C1OC(CCl)C(OC(C)=O)O1 (stereo not given)
inactive: [4] 103 % of control | [5] 103 % of control | [6] 102 % of control

COc1ncnc2c1ccn2C1OC(CO)C(O)C1O (stereo not given)
inactive: dose: 6.25 mg/kg/injection, schedule: Q01DX005 (ip), vehicle: Klucel (hydroxypropylcellulose) (HPC) 107 % of control | dose: 12.5 mg/kg/injection, schedule: Q01DX005 (ip), vehicle: Klucel (hydroxypropylcellulose) (HPC) 89 % of control

CC(N=Cc1ccccc1O)c1ccccc1.[CH-]=C([CH2-])C(C)(C)C.[Pd+2] (stereo not given)
inactive: dose: 6.25 mg/kg/injection, schedule: Q04DX003 (ip), vehicle: Klucel (hydroxypropylcellulose) (HPC) 108 % of control | dose: 12.5 mg/kg/injection, schedule: Q04DX003 (ip), vehicle: Klucel (hydroxypropylcellulose) (HPC) 93 % of control | dose: 25.0 mg/kg/injection, schedule: Q04DX003 (ip), vehicle: Klucel (hydroxypropylcellulose) (HPC) 92 % of control

N#CCc1cccc2c(=O)cc(-c3ccccc3)oc12
inactive: [8] 106 % of control | [9] 96 % of control | [10] 87 % of control

Cn1c(=O)c2c(ncn2-c2ccc(N)cc2Cl)n(C)c1=O
inactive: dose: 25.0 mg/kg/injection, schedule: Q01DX005 (ip), vehicle: distilled water + alcohol 100 % of control | dose: 50.0 mg/kg/injection, schedule: Q01DX005 (ip), vehicle: distilled water + alcohol 100 % of control and 101 % of control | dose: 100.0 mg/kg/injection, schedule: Q01DX005 (ip), vehicle: distilled water + alcohol 104 % of control | dose: 200.0 mg/kg/injection, schedule: Q01DX005 (ip), vehicle: distilled water + alcohol 99 % of control

NNC(=O)CCCCCCCCCCCCCCCO
inactive: [11] 97 % of control | [12] 88 % of control | [4] 88 % of control

CCC(=O)OC1(c2ccccc2)CCP(C)(=S)CC1 (stereo not given)
inactive: [16] 97 % of control | [17] 106 % of control | [18] 101 % of control

CCOC(=O)C(O)Cc1cnc2ccccc2n1 (stereo not given)
inactive: [1] 108 % of control | [2] 108 % of control | [3] 100 % of control

COc1ccccc1NC(=S)Nc1ccccc1OC
inactive: [5] 100 % of control | dose: 100.0 mg/kg/injection, schedule: Q04DX003 (ip), vehicle: saline sonified 100 % of control | [6] 87 % of control | dose: 200.0 mg/kg/injection, schedule: Q04DX003 (ip), vehicle: saline sonified 100 % of control | [7] 91 % of control | dose: 400.0 mg/kg/injection, schedule: Q04DX003 (ip), vehicle: saline sonified 100 % of control

CCCCOP(O)(=S)OCCCC.[Sm]
inactive: dose: 100.0 mg/kg/injection, schedule: Q01DX001 (ip), vehicle: saline with Tween-80 92 % of control | dose: 200.0 mg/kg/injection, schedule: Q01DX001 (ip), vehicle: saline with Tween-80 116 % of control

COC(=O)c1ccc(C)cc1C(=O)OC
inactive: dose: 50.0 mg/kg/injection, schedule: Q04DX003 (ip), vehicle: saline with Tween-80 100 % of control | dose: 100.0 mg/kg/injection, schedule: Q04DX003 (ip), vehicle: saline with Tween-80 100 % of control | dose: 200.0 mg/kg/injection, schedule: Q04DX003 (ip), vehicle: saline with Tween-80 104 % of control

Source: PubChem BioAssay AID330 (DTP/NCI, 2004)
